Consider two compounds from ChEMBL document CHEMBL5291721, “A preclinical secondary pharmacology resource illuminates target-adverse drug reaction associations of marketed drugs” (Nat Commun, 2023).

Assay [1] deals with T1, Equilibrative nucleoside transporter 1 (Homo sapiens, UniProt Q99808).
T1 sequence (Q99808 whole entry): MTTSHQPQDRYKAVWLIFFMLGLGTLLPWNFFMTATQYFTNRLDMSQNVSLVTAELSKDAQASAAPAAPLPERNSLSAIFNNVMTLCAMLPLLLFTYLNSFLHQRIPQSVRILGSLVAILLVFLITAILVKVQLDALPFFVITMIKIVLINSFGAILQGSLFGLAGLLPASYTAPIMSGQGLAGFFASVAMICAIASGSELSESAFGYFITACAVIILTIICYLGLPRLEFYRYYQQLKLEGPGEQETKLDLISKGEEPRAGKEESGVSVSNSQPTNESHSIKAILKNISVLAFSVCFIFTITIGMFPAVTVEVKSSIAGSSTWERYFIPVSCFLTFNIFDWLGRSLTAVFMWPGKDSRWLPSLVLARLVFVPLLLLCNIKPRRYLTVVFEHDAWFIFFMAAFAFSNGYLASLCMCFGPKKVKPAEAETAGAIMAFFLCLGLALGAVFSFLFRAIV

Assay [2] concerns the target D(3) dopamine receptor (Homo sapiens, UniProt P35462).
Assay [3] has as its target T2, 5-hydroxytryptamine receptor 2B (Homo sapiens, UniProt P41595). It is filed as functional, cell-based.
Assay [4] has as its target T3, Alpha-2C adrenergic receptor (Homo sapiens, UniProt P18825).
T3 sequence (P18825 whole entry): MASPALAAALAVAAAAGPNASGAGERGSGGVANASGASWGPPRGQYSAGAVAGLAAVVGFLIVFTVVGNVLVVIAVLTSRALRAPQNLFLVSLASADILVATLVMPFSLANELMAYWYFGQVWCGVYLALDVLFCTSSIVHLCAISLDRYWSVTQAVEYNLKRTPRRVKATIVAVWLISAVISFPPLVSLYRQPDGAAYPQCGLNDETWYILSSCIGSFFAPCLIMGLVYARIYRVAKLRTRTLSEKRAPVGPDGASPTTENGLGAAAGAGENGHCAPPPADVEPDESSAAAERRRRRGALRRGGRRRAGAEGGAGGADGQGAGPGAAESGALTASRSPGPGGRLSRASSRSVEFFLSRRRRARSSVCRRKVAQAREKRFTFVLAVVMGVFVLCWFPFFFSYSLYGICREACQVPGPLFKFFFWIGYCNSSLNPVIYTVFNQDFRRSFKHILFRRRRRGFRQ
It is filed as functional.

Assay [5] addresses Beta-1 adrenergic receptor (Homo sapiens, UniProt P08588). Type of assay: functional.
The target of assay [6] is Sodium-dependent serotonin transporter (Homo sapiens, UniProt P31645).
Sequence of Sodium-dependent serotonin transporter (P31645 whole entry): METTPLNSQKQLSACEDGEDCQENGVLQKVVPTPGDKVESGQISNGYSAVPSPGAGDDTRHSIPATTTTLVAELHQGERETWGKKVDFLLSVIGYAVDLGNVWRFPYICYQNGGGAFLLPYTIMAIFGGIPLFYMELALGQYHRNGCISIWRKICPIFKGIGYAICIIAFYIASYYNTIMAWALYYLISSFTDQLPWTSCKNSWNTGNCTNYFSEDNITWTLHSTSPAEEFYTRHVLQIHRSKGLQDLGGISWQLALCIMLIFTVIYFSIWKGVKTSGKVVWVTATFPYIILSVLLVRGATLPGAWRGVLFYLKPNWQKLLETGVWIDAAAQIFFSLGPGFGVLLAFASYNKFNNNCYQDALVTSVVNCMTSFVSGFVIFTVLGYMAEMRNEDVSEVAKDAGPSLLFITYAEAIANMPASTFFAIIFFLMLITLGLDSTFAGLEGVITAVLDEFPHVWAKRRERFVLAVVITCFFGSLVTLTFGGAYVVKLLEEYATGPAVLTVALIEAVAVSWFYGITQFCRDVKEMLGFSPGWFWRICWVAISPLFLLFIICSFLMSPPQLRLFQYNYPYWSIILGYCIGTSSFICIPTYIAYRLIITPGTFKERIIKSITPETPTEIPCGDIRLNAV
Assay [7] deals with T4, Neuropeptide Y receptor type 1 (Homo sapiens, UniProt P25929).
T4 sequence (P25929 whole entry): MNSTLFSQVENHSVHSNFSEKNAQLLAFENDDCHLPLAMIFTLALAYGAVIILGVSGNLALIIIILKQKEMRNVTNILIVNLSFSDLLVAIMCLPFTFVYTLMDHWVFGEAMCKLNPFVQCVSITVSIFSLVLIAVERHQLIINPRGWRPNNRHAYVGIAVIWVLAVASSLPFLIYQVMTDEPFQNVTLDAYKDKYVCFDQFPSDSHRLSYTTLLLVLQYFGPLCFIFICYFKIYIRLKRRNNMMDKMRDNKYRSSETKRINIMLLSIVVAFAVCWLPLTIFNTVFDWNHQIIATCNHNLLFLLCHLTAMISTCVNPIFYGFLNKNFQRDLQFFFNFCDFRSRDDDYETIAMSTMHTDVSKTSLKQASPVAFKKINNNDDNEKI

For assay [8], the target named is 5-hydroxytryptamine receptor 2A (Homo sapiens, UniProt P28223). It is filed as functional, cell-based.
Sequence of 5-hydroxytryptamine receptor 2A (P28223 whole entry): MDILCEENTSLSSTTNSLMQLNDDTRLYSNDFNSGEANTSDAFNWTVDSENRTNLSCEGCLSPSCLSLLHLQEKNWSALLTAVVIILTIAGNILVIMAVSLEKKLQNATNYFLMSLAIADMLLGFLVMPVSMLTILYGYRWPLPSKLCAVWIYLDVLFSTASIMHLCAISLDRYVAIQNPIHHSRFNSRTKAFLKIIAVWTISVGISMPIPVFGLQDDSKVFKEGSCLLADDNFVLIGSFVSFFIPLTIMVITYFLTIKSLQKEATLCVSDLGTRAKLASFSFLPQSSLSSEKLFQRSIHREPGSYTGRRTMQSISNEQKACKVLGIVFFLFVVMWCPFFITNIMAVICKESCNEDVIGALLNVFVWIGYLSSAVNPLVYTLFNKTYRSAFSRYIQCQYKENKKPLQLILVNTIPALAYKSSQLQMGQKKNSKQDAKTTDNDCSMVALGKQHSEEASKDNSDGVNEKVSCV
Assay [9] deals with T2, 5-hydroxytryptamine receptor 2B. It is filed as functional, cell-based. This is another data set of the same source.
Assay [10] has as its target Kappa-type opioid receptor (Homo sapiens, UniProt P41145).
Assay [11] addresses Voltage-gated inwardly rectifying potassium channel KCNH2 (Homo sapiens, UniProt Q12809). Type of assay: functional. Conditions: read-out: AC50.
In assay [12] the target is cGMP-inhibited 3',5'-cyclic phosphodiesterase 3A (Homo sapiens, UniProt Q14432). It is filed as functional.
Sequence of cGMP-inhibited 3',5'-cyclic phosphodiesterase 3A (Q14432 whole entry): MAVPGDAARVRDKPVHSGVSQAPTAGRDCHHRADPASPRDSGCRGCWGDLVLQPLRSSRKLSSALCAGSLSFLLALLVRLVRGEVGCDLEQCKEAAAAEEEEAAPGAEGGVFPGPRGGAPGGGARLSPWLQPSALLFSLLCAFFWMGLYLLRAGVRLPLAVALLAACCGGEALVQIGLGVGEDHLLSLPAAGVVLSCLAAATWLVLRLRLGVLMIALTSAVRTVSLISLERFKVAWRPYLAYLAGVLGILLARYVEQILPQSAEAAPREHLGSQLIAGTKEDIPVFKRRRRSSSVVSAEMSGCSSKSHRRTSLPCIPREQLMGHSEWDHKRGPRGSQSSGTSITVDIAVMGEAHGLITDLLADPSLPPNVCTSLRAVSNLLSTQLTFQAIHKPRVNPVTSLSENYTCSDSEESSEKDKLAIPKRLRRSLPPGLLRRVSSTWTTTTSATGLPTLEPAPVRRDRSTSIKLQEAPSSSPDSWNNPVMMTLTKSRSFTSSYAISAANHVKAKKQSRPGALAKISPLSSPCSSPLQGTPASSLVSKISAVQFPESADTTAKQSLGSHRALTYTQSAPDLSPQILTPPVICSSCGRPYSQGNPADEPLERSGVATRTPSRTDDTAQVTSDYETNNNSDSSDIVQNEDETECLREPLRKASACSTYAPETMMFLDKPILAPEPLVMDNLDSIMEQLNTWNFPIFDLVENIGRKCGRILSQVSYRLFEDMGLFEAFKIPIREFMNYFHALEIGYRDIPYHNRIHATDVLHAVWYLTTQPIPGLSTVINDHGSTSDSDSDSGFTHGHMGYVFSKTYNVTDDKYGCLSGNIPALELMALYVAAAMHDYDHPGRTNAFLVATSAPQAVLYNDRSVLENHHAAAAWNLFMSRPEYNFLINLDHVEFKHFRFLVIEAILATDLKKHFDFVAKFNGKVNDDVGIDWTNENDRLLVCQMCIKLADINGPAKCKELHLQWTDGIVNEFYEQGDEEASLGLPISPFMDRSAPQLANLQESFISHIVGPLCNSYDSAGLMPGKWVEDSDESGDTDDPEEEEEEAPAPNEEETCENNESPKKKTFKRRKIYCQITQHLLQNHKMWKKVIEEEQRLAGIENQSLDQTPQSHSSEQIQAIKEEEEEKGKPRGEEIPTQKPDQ
In assay [13] the target is Histamine H1 receptor (Homo sapiens, UniProt P35367).
Sequence of Histamine H1 receptor (P35367 whole entry): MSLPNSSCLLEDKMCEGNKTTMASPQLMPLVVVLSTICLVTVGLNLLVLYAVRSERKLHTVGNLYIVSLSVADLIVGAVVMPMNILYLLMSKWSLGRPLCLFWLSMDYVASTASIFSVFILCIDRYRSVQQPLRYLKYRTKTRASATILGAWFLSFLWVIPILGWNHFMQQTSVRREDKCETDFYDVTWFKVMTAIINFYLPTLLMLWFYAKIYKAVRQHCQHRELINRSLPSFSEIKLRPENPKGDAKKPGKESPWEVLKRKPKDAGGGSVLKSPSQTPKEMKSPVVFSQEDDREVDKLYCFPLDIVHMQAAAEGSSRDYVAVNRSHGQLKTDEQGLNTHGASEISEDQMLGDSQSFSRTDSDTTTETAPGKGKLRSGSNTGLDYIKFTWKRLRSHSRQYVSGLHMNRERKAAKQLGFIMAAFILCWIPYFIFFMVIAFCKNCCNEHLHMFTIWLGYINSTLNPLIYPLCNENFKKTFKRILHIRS
For assay [14], the target named is T5, Alpha-2B adrenergic receptor (Homo sapiens, UniProt P18089).
T5 sequence (P18089 whole entry): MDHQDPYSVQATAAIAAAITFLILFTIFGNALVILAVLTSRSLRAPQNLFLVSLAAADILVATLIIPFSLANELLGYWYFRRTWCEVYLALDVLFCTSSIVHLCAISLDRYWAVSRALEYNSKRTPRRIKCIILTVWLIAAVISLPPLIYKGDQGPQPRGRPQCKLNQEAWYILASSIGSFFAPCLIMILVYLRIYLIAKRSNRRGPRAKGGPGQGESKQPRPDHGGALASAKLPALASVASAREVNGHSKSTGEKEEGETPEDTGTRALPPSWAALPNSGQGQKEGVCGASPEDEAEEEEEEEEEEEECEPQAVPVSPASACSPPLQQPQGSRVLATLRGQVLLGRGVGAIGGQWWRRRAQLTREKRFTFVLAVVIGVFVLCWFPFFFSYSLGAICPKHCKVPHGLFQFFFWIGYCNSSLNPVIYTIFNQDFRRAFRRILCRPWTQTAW

As usually defined, the AC50 is the concentration at which the activity in the assay is half-maximal.

Structures are written as SMILES.
Note: assay procedure not described here.

T2 sequence (P41595 whole entry): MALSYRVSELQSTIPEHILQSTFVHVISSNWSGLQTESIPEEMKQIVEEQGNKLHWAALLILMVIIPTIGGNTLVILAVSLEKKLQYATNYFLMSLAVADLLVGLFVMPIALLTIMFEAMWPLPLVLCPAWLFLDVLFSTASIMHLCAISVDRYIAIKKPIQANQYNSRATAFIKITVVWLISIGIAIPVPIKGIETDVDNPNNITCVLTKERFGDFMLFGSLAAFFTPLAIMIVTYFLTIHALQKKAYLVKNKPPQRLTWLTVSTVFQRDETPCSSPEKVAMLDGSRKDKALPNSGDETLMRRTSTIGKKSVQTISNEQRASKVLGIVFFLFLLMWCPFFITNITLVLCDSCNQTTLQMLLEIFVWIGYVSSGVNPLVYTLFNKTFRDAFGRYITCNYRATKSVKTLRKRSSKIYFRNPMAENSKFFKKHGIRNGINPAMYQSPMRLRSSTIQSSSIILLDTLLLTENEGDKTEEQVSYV
Sequence of D(3) dopamine receptor (P35462 whole entry): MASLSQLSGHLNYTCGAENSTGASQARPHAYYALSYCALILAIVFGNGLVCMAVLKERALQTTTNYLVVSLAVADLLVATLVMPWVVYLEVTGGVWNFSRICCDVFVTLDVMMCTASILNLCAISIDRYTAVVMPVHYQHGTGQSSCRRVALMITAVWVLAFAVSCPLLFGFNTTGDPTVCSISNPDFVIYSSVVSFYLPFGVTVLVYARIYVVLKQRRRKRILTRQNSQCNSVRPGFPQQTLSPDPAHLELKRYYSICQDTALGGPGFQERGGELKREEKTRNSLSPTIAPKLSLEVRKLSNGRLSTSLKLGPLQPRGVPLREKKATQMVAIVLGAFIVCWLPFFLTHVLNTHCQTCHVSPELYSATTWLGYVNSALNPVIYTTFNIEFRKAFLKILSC
Sequence of Beta-1 adrenergic receptor (P08588 whole entry): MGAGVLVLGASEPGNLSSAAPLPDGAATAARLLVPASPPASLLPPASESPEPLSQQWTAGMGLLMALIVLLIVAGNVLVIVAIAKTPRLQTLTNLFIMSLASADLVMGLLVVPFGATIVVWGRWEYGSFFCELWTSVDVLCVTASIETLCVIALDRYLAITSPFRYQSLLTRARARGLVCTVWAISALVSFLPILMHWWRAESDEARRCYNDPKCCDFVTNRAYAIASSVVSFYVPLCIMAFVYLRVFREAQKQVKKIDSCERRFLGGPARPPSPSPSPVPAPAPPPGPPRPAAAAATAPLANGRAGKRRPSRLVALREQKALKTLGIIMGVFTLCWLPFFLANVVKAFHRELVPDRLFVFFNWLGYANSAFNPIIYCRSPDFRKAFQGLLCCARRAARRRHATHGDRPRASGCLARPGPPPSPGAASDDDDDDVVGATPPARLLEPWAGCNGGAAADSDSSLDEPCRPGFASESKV
Sequence of Kappa-type opioid receptor (P41145 whole entry): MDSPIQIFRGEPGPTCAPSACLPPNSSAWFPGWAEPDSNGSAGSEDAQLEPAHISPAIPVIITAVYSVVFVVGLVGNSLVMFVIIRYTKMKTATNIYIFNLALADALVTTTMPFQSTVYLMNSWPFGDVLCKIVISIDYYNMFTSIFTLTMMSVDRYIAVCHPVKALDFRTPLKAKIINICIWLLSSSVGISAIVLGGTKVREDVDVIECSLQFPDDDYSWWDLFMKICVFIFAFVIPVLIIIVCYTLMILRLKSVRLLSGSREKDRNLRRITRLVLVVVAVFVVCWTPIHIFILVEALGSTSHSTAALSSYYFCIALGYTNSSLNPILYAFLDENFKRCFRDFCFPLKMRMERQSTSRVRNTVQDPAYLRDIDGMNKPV

Take `C=CC(N)CCC(=O)O` (stereo not drawn) [VIGABATRIN]: the AC50 was more than 30 µM in assay [1]; more than 30 µM in [2]; more than 10 µM in [3]; more than 10 µM in assay [4]; more than 10 µM in assay [5]; 12.2 µM in [6]. The half-maximal activity concentration (AC50) in assay [7] was more than 10 µM; in [8] it was more than 10 µM; in assay [9], more than 10 µM; in assay [10], more than 10 µM; in [11] it was more than 30 µM; in assay [12] it was more than 30 µM. In addition, the AC50 in assay [13] and in assay [14] was more than 10 µM throughout.

On to `N#C[C@@H]1CCCN1C(=O)CNC12CC3CC(CC(O)(C3)C1)C2` [VILDAGLIPTIN], for which the AC50 is more than 30 µM in assay [1]; more than 30 µM in [2]; more than 30 µM in assay [3]; more than 30 µM in assay [4]; more than 10 µM in [5]; more than 30 µM in assay [6]. Moreover, the half-maximal activity concentration (AC50) in assay [7], in [8], in assay [9], in assay [10], in assay [11] and in assay [12] was more than 30 µM in each case. The concentration at half-maximal activity (AC50) in assay [13] and in assay [14] was more than 30 µM each time.
